Test results published in PubChem BioAssay (NCI).
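Protocol summary: plate cells (96-well), add compound at 5 concentrations, incubate 48 h, interpolate endpoints linearly. GI50 marks 50% less growth. TGI is the concentration that stops growth completely.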

Columns and labels:
Experiment in all cases: inhibition of tumour cell growth, NCI panel, 48 h; in the data active = GI50 below about 0.43 µM; inactive = the rest
UACC-62 melanoma = test system: UACC-62 melanoma
UACC-257 melanoma = test system: UACC-257 melanoma
MALME-3M melanoma = test system: MALME-3M melanoma
OVCAR-5 ovarian = test system: OVCAR-5 ovarian
PC-3 prostate = test system: PC-3 prostate
SF-268 CNS = test system: SF-268 CNS
HCT-116 colon = test system: HCT-116 colon
IGROV1 ovarian = test system: IGROV1 ovarian
M14 melanoma = test system: M14 melanoma
NCI-H460 lung = test system: NCI-H460 lung
HL-60(TB) leukemia = test system: HL-60(TB) leukemia
SF-295 CNS = test system: SF-295 CNS
K-562 leukemia = test system: K-562 leukemia
COLO 205 colon = test system: COLO 205 colon
U251 CNS = test system: U251 CNS
CAKI-1 renal = test system: CAKI-1 renal
SK-OV-3 ovarian = test system: SK-OV-3 ovarian
UO-31 renal = test system: UO-31 renal
HS 578T breast = test system: HS 578T breast
CCRF-CEM leukemia = test system: CCRF-CEM leukemia
NCI-H522 lung = test system: NCI-H522 lung
HOP-92 NSCLC = test system: HOP-92 NSCLC
NCI/ADR-RES ovarian = test system: NCI/ADR-RES ovarian
SK-MEL-5 melanoma = test system: SK-MEL-5 melanoma
SR leukemia = test system: SR leukemia
HOP-62 NSCLC = test system: HOP-62 NSCLC
SK-MEL-28 melanoma = test system: SK-MEL-28 melanoma
RPMI-8226 leukemia = test system: RPMI-8226 leukemia
MDA-MB-231 breast = test system: MDA-MB-231 breast

Cc1ccc(-c2ccc(SCC(=O)Nc3ccc(Cl)c(C(F)(F)F)c3)nn2)cc1
24.1 µM: TGI (HOP-62 NSCLC)
46.4 µM: TGI (IGROV1 ovarian)
inactive: GI50 (UACC-62 melanoma) 0.531 µM | GI50 (UACC-257 melanoma) 12.1 µM | GI50 (MALME-3M melanoma) 0.589 µM | GI50 (OVCAR-5 ovarian) 3.24 µM | GI50 (PC-3 prostate) 0.878 µM | GI50 (SF-268 CNS) 9.67 µM | GI50 (HCT-116 colon) 0.445 µM | GI50 (IGROV1 ovarian) 1.46 µM | GI50 (M14 melanoma) 0.538 µM | GI50 (NCI-H460 lung) 3.22 µM | GI50 (SF-295 CNS) 0.5 µM | GI50 (COLO 205 colon) 1.06 µM | GI50 (U251 CNS) 1.47 µM | GI50 (CAKI-1 renal) 1.72 µM | GI50 (SK-OV-3 ovarian) 3.82 µM | GI50 (UO-31 renal) 3.16 µM | GI50 (HS 578T breast) 1.05 µM | GI50 (CCRF-CEM leukemia) 0.459 µM | GI50 (NCI-H522 lung) 0.528 µM | GI50 (HOP-92 NSCLC) 2.95 µM | GI50 (SK-MEL-5 melanoma) 0.435 µM | GI50 (HOP-62 NSCLC) 1.23 µM | GI50 (SK-MEL-28 melanoma) 5.77 µM | GI50 (RPMI-8226 leukemia) 0.986 µM | GI50 (MDA-MB-231 breast) 1.15 µM
8.14 µM: TGI (HS 578T breast)
> 100 µM: TGI (UACC-257 melanoma) | TGI (OVCAR-5 ovarian) | TGI (PC-3 prostate) | TGI (SF-268 CNS) | TGI (HCT-116 colon) | TGI (M14 melanoma) | TGI (NCI-H460 lung) | TGI (K-562 leukemia) | TGI (CAKI-1 renal) | TGI (UO-31 renal) | TGI (CCRF-CEM leukemia) | TGI (SR leukemia) | TGI (SK-MEL-28 melanoma) | TGI (RPMI-8226 leukemia)
2.32 µM: TGI (HL-60(TB) leukemia)
2.14 µM: TGI (NCI/ADR-RES ovarian)
active: GI50 (HL-60(TB) leukemia) 0.319 µM | GI50 (K-562 leukemia) 0.419 µM | GI50 (NCI/ADR-RES ovarian) 0.393 µM | GI50 (SR leukemia) 0.34 µM
59.5 µM: TGI (HOP-92 NSCLC)
39.4 µM: TGI (UACC-62 melanoma)
36.5 µM: TGI (MALME-3M melanoma)
8.76 µM: TGI (SK-MEL-5 melanoma)
65.3 µM: TGI (SK-OV-3 ovarian)
3.51 µM: TGI (COLO 205 colon)
38.5 µM: TGI (U251 CNS)
4 µM: TGI (NCI-H522 lung)
8.22 µM: TGI (SF-295 CNS)
